These results are taken from patent publication US20250382344A1, “Soluble GLP1/GIP/NPY2 Receptor Triple Agonists” (Boehringer Ingelheim International GmH, priority 2024, published 2025).

A short description of the series: Solubility in 0.1 M phosphate buffer at pH 7. In kind it is physicochemical. The conditions noted are these: 0.1 M phosphate buffer at pH 7, 10 mg/mL final peptide concentration, shaking 2 hours at room temperature, peptides as TFA-salts, measured sample pH 6.5-7.0; for solubility: read-out: Solubility.

With `CC[C@H](C)[C@H](NC(=O)[C@H](CC(C)C)NC(=O)[C@H](Cc1c[nH]cn1)NC(=O)[C@H](CCCNC(=N)N)NC(=O)[C@@H](NC(=O)[C@H](Cc1ccccc1)NC(=O)[C@H](C)NC(=O)C(C)(C)NC(=O)[C@H](CCC(N)=O)NC(=O)[C@H](C)NC(=O)[C@H](CCC(N)=O)NC(=O)[C@H](CCCCN)NC(=O)[C@H](CCC(=O)O)NC(=O)[C@H](CC(C)C)NC(=O)C(C)(C)NC(=O)[C@H](CCC(=O)O)NC(=O)[C@H](CO)NC(=O)[C@H](Cc1ccc(O)cc1)NC(=O)[C@H](CC(=O)O)NC(=O)[C@H](CO)NC(=O)[C@@H](NC(=O)[C@H](Cc1ccccc1)NC(=O)[C@@H](NC(=O)CNC(=O)[C@H](CCC(=O)O)NC(=O)C(C)(C)NC(=O)[C@@H](N)Cc1ccc(O)cc1)[C@@H](C)O)[C@@H](C)O)C(C)C)C(=O)N[C@@H](CC(N)=O)C(=O)N[C@@H](CCCCNC(=O)[C@@H](N)CCCCNC(=O)CC[C@H](NC(=O)CC[C@H](NC(=O)CC[C@H](NC(=O)CC[C@H](NC(=O)CC[C@H](NC(=O)CC[C@H](NC(=O)CCCCCCCCCCCCCCCCC(=O)O)C(=O)O)C(=O)O)C(=O)O)C(=O)O)C(=O)O)C(=O)O)C(=O)NC(C)(C)C(=O)N[C@H](C(=O)N[C@@H](CCCNC(=N)N)C(=O)N[C@@H](CCC(N)=O)C(=O)N[C@@H](CCCNC(=N)N)C(=O)N[C@@H](Cc1ccc(O)cc1)C(N)=O)[C@@H](C)O` [Compound 112, Y-Aib-E-G-T-F-T-S-D-Y-S-E-Aib-L-E-K-Q-A-Q-Aib-A-F-V-R-H-L-I-N-K(1,3)-Aib-T-R-Q-R-Y-NH2.C18DA-gGlu-gGlu-gGlu-gGlu-gGlu-gGlu-eLys(1,2)], the solubility was 4.4 mg/mL. Still for that read-out and setting: next, `CC[C@H](C)[C@H](NC(=O)[C@H](CC(C)C)NC(=O)[C@H](Cc1c[nH]cn1)NC(=O)[C@H](CCCNC(=N)N)NC(=O)[C@@H](NC(=O)[C@H](Cc1ccccc1)NC(=O)[C@H](C)NC(=O)C(C)(C)NC(=O)[C@H](CCC(N)=O)NC(=O)[C@H](C)NC(=O)[C@H](CCC(N)=O)NC(=O)[C@H](CCCCN)NC(=O)[C@H](CCC(=O)O)NC(=O)[C@H](CC(C)C)NC(=O)C(C)(C)NC(=O)[C@@H](NC(=O)[C@H](CO)NC(=O)[C@H](Cc1ccc(O)cc1)NC(=O)[C@H](CC(=O)O)NC(=O)[C@H](CO)NC(=O)[C@@H](NC(=O)[C@H](Cc1ccccc1)NC(=O)[C@@H](NC(=O)CNC(=O)[C@H](CCC(=O)O)NC(=O)C(C)(C)NC(=O)[C@@H](N)Cc1ccc(O)cc1)[C@@H](C)O)[C@@H](C)O)[C@@H](C)CC)C(C)C)C(=O)N[C@@H](CC(N)=O)C(=O)N[C@@H](CCCCNC(=O)COCCOCCNC(=O)COCCOCCNC(=O)CC[C@H](NC(=O)CC[C@H](NC(=O)CC[C@H](NC(=O)CC[C@H](NC(=O)CC[C@H](NC(=O)CCCCCCCCCCCCCCCCC(=O)O)C(=O)O)C(=O)O)C(=O)O)C(=O)O)C(=O)O)C(=O)NC(C)(C)C(=O)N[C@H](C(=O)N[C@@H](CCCNC(=N)N)C(=O)N[C@@H](CCC(N)=O)C(=O)N[C@@H](CCCNC(=N)N)C(=O)N[C@@H](Cc1ccc(O)cc1)C(N)=O)[C@@H](C)O` [Compound 117, Y-Aib-E-G-T-F-T-S-D-Y-S-I-Aib-L-E-K-Q-A-Q-Aib-A-F-V-R-H-L-I-N-K(1,3)-Aib-T-R-Q-R-Y-NH2.C18DA-gGlu-gGlu-gGlu-gGlu-gGlu-OEG-OEG(1,2)]: 4.8 mg/mL; `CC[C@H](C)[C@H](NC(=O)[C@H](CC(C)C)NC(=O)[C@H](Cc1c[nH]cn1)NC(=O)[C@H](CCCNC(=N)N)NC(=O)[C@@H](NC(=O)[C@H](Cc1ccccc1)NC(=O)[C@H](C)NC(=O)C(C)(C)NC(=O)[C@H](CCC(N)=O)NC(=O)[C@H](C)NC(=O)[C@H](CCC(N)=O)NC(=O)[C@H](CCCCN)NC(=O)[C@H](CCC(=O)O)NC(=O)[C@H](CC(C)C)NC(=O)C(C)(C)NC(=O)[C@@H](NC(=O)[C@H](CO)NC(=O)[C@H](Cc1ccc(O)cc1)NC(=O)[C@H](CC(=O)O)NC(=O)[C@H](CO)NC(=O)[C@@H](NC(=O)[C@H](Cc1ccccc1)NC(=O)[C@@H](NC(=O)CNC(=O)[C@H](CCC(=O)O)NC(=O)C(C)(C)NC(=O)[C@@H](N)Cc1ccc(O)cc1)[C@@H](C)O)[C@@H](C)O)[C@@H](C)CC)C(C)C)C(=O)N[C@@H](CC(N)=O)C(=O)N[C@@H](CCCCNC(=O)[C@@H](N)CCNC(=O)CC[C@H](NC(=O)CC[C@H](NC(=O)CC[C@H](NC(=O)CC[C@H](NC(=O)CC[C@H](NC(=O)CC[C@H](NC(=O)CCCCCCCCCCCCCCCCC(=O)O)C(=O)O)C(=O)O)C(=O)O)C(=O)O)C(=O)O)C(=O)O)C(=O)NC(C)(C)C(=O)N[C@H](C(=O)N[C@@H](CCCNC(=N)N)C(=O)N[C@@H](CCC(N)=O)C(=O)N[C@@H](CCCNC(=N)N)C(=O)N[C@@H](Cc1ccc(O)cc1)C(N)=O)[C@@H](C)O` [Compound 120, Y-Aib-E-G-T-F-T-S-D-Y-S-I-Aib-L-E-K-Q-A-Q-Aib-A-F-V-R-H-L-I-N-K(1,3)-Aib-T-R-Q-R-Y-NH2.C18DA-gGlu-gGlu-gGlu-gGlu-gGlu-gGlu-gDab(1,2)]: 4.7 mg/mL. Turning to `CC[C@H](C)[C@H](NC(=O)[C@H](C)NC(=O)[C@H](Cc1c[nH]cn1)NC(=O)[C@H](CCCNC(=N)N)NC(=O)[C@@H](NC(=O)[C@H](Cc1ccccc1)NC(=O)[C@H](C)NC(=O)C(C)(C)NC(=O)[C@H](CCC(N)=O)NC(=O)[C@H](C)NC(=O)[C@H](CCC(N)=O)NC(=O)[C@H](CCCCN)NC(=O)[C@H](CCC(=O)O)NC(=O)[C@H](CC(C)C)NC(=O)C(C)(C)NC(=O)[C@@H](NC(=O)[C@H](CO)NC(=O)[C@H](Cc1ccc(O)cc1)NC(=O)[C@H](CC(=O)O)NC(=O)[C@H](CO)NC(=O)[C@@H](NC(=O)[C@H](Cc1ccccc1)NC(=O)[C@@H](NC(=O)CNC(=O)[C@H](CCC(=O)O)NC(=O)C(C)(C)NC(=O)[C@@H](N)Cc1ccc(O)cc1)[C@@H](C)O)[C@@H](C)O)[C@@H](C)CC)C(C)C)C(=O)N[C@@H](CC(N)=O)C(=O)N[C@@H](CCCCNC(=O)[C@@H](N)CCCCNC(=O)CC[C@H](NC(=O)CC[C@H](NC(=O)CC[C@H](NC(=O)CC[C@H](NC(=O)CC[C@H](NC(=O)CC[C@H](NC(=O)CCCCCCCCCCCCCCCCC(=O)O)C(=O)O)C(=O)O)C(=O)O)C(=O)O)C(=O)O)C(=O)O)C(=O)NC(C)(C)C(=O)N[C@H](C(=O)N[C@@H](CCCNC(=N)N)C(=O)N[C@@H](CCC(N)=O)C(=O)N[C@@H](CCCNC(=N)N)C(=O)N[C@@H](Cc1ccc(O)cc1)C(N)=O)[C@@H](C)O` [Compound 139, Y-Aib-E-G-T-F-T-S-D-Y-S-I-Aib-L-E-K-Q-A-Q-Aib-A-F-V-R-H-A-I-N-K(1,3)-Aib-T-R-Q-R-Y-NH2.C18DA-gGlu-gGlu-gGlu-gGlu-gGlu-gGlu-eLys(1,2)], the solubility at 2 h amounted to 9 mg/mL.
